Read-outs that look alike come from different tables or passages of the source.
What was measured:
[1] = log P; assay type: physicochemical
[2] = tested on: PC3; assay: IC50 in PC3 cells; assay type: cell-based; details: Homo sapiens, head prints PC2, text PC3
Experimental: (§1) Exemplary compounds of the presently-disclosed subject matter were assessed for activity, including clearance, potency, and selectivity. Results from studies are compiled in Tables 2-4.
(§2) Desirable clearance was identified at lower values of mL hr^−1kg^−1 (e.g., about ≤10 mL hr^−1 kg^−1), desirable potency was identified at lower values of IC50 (e.g., about ≤10 nM in TC32 cells), and desired selectivity was identified at higher ratios of IC50 in PC3/IC50 in TC32 (e.g. about >10).

[3] = tested on: TC32; assay: Cytotoxicity, resazurin fluorescence, TC32; assay type: cell-based; details: Homo sapiens, TC-32, 72 h, read-out: GI50 TC32, Table 5
Experimental: (§3) Exemplary compounds of the presently-disclosed subject matter were assessed for cytotoxicity (Table 5) in Ewing sarcoma (TC32) and non-Ewing (PC3 prostate cancer). […] Cells (1000-5000/well) were seeded in 96-well plates and allowed to attach and grow for 24 hr prior to adding compounds in half-log increments from 0.3 nM-10 μM. Cell viability was assessed after 72 hr continuous incubation with compounds using resazurin fluorescence. GI50 values were estimated using GraphPad Prism.

[4] = tested on: TC32 cells; assay: Potency IC50 in TC32 cells and selectivity; assay type: cell-based; details: Homo sapiens
Experimental: as §1, §2

[5] = Clearance (CL) / pharmacokinetics; assay type: in vivo, mice; details: for clearance: mouse, plasma, iv, Table 2
Experimental: as §1, §2
Pharmacokinetics of exemplary compounds of the presently-disclosed subject matter were studied in mice following bolus IV dosing. Groups of three mice were administered the compound(s) and blood samples were collected via saphenous bleed. Plasma was separated by centrifugation and extracted to quantitate analytes by LC/MS/MS. Sample analysis followed upon the system meeting system suitability criteria customary for fit for purpose analytical methods. FIG. 1A includes data comparing YL-C09 to mithramycin (MTM) dosed separately. FIG. 1B includes data for YL-B171, YL-C110 and MTM dosed in cassette format.

[6] = tested on: PC3; assay: Cytotoxicity, resazurin fluorescence, PC3; assay type: cell-based; details: for GI50: Homo sapiens, PC-3, 72 h, read-out: GI50 PC3, Table 5
Experimental: as §3

[7] = PC-3, read-out: IC50 PC2, Table 2
[8] = TC-32, Table 2, read-out: IC50 TC32
[9] = PC-3, read-out: IC50 PC2, Table 3
[10] = PC-3, read-out: IC50 PC2, Table 4
[11] = TC-32, Table 3, read-out: IC50 TC32
[12] = TC-32, Table 4, read-out: IC50 TC32

| Structure (SMILES) | logP ([1]; Table 2) | IC50 [2, 7] [nM] | GI50 [3] [nM] | IC50 [4, 8] [nM] | clearance [5] [mL/min/kg] | GI50 [6] [nM] | logP ([1]; Table 3) | logP ([1]; Table 4) | IC50 [2, 9] [nM] | IC50 [2, 10] [nM] | IC50 [4, 11] [nM] | IC50 [4, 12] [nM] | CL ([5]; Table 3) [mL/min/kg] | CL ([5]; Table 4) [mL/min/kg] | PK Improvement ([5]; Table 4) | IC50 ([4]; TC-32, read-out: IC50 TC32, Table 3) [nM] | GI50 PC3 ([6]; Table 5, 72 hr) [nM] |
| --- | --- | --- | --- | --- | --- | --- | --- | --- | --- | --- | --- | --- | --- | --- | --- | --- | --- |
| CO[C@H](C(=NOCCNC(=O)c1[nH]c2ccc(Cl)cc2c1-c1cnoc1)[C@@H](O)[C@@H](C)O)[C@@H]1Cc2cc3cc(O[C@H]4C[C@@H](O[C@H]5C[C@@H](O)[C@H](O)[C@@H](C)O5)[C@H](O)[C@@H](C)O4)c(C)c(O)c3c(O)c2C(=O)[C@H]1O[C@H]1C[C@@H](O[C@H]2C[C@@H](O[C@H]3C[C@](C)(O)[C@H](O)[C@@H](C)O3)[C@@H](O)[C@@H](C)O2)[C@H](O)[C@@H](C)O1 [YL-C108] | 1.44 | 40.3 | 34 | 6.12 | 0.4 | 126 |  |  |  |  |  |  |  |  |  |  |  |
| COC(C(=NOCCNC(=O)c1[nH]c2ccc(Cl)cc2c1-c1cccs1)C(O)C(C)O)C1Cc2cc3cc(OC4CC(OC5CC(O)C(O)C(C)O5)C(O)C(C)O4)c(C)c(O)c3c(O)c2C(=O)C1OC1CC(OC2CC(OC3CC(C)(O)C(O)C(C)O3)C(O)C(C)O2)C(O)C(C)O1 (stereo not drawn) [YL-C106] | 3.3 | 202 | 99 | 17.2 | 0.317 | 236 | 3.3 | 3.3 | 202 | 202 | 17 | 17.2 | 0.317 | 0.317 | 83.1 |  |  |
| CO[C@H](C(=NOCCNC(=O)c1[nH]c2ccc(F)cc2c1-c1ccc(Cl)cc1)[C@@H](O)[C@@H](C)O)[C@@H]1Cc2cc3cc(O[C@H]4C[C@@H](O[C@H]5C[C@@H](O)[C@H](O)[C@@H](C)O5)[C@H](O)[C@@H](C)O4)c(C)c(O)c3c(O)c2C(=O)[C@H]1O[C@H]1C[C@@H](O[C@H]2C[C@@H](O[C@H]3C[C@](C)(O)[C@H](O)[C@@H](C)O3)[C@@H](O)[C@@H](C)O2)[C@H](O)[C@@H](C)O1 [YL-C118] | 3.64 | 582 | 232 | 36.6 | 0.467 | 417 |  |  |  |  |  |  |  |  |  |  |  |
| CO[C@H](C(=NOCCNC(=O)c1[nH]c2ccc(Cl)cc2c1-c1ccc(Cl)cc1)[C@@H](O)[C@@H](C)O)[C@@H]1Cc2cc3cc(O[C@H]4C[C@@H](O[C@H]5C[C@@H](O)[C@H](O)[C@@H](C)O5)[C@H](O)[C@@H](C)O4)c(C)c(O)c3c(O)c2C(=O)[C@H]1O[C@H]1C[C@@H](O[C@H]2C[C@@H](O[C@H]3C[C@](C)(O)[C@H](O)[C@@H](C)O3)[C@@H](O)[C@@H](C)O2)[C@H](O)[C@@H](C)O1 [YL-C82] | 4.21 | 515 | 356 | 20.2 | 0.383 | 805 | 4.21 | 4.2 | 218 | 515 |  | 20.2 | 0.383 | 0.383 | 68.6 | 12 |  |
| COC(C(=NOCCNC(=O)c1[nH]c2ccc(Cl)cc2c1-c1ccccc1)C(O)C(C)O)C1Cc2cc3cc(OC4CC(OC5CC(O)C(O)C(C)O5)C(O)C(C)O4)c(C)c(O)c3c(O)c2C(=O)C1OC1CC(OC2CC(OC3CC(C)(O)C(O)C(C)O3)C(O)C(C)O2)C(O)C(C)O1 (stereo not drawn) [YL-B176] | 3.49 | 178 | 117 | 13.9 | 0.35 | 304 | 3.49 | 3.5 | 178 | 178 | 13.9 | 13.9 | 0.35 | 0.35 | 75.1 |  |  |
| CO[C@H](C(=NOCCNC(=O)c1[nH]c2ccc(Cl)cc2c1-c1cncnc1)[C@@H](O)[C@@H](C)O)[C@@H]1Cc2cc3cc(O[C@H]4C[C@@H](O[C@H]5C[C@@H](O)[C@H](O)[C@@H](C)O5)[C@H](O)[C@@H](C)O4)c(C)c(O)c3c(O)c2C(=O)[C@H]1O[C@H]1C[C@@H](O[C@H]2C[C@@H](O[C@H]3C[C@](C)(O)[C@H](O)[C@@H](C)O3)[C@@H](O)[C@@H](C)O2)[C@H](O)[C@@H](C)O1 [YL-C122] | 1.73 | 124 | 162 | 18.5 | 0.683 | 477 |  |  |  |  |  |  |  |  |  |  |  |
| COC(C(=NOCCNC(=O)c1[nH]c2ccc(O)cc2c1-c1ccc(Cl)cc1)C(O)C(C)O)C1Cc2cc3cc(OC4CC(OC5CC(O)C(O)C(C)O5)C(O)C(C)O4)c(C)c(O)c3c(O)c2C(=O)C1OC1CC(OC2CC(OC3CC(C)(O)C(O)C(C)O3)C(O)C(C)O2)C(O)C(C)O1 (stereo not drawn) [YL-C120] | 3.04 | 31.4 | 36 | 7.6 | 0.417 | 66 |  |  |  |  |  |  |  |  |  |  |  |
| COC(C(=NOCc1[nH]c2ccc(Cl)cc2c1-c1ccccc1)C(O)C(C)O)C1Cc2cc3cc(OC4CC(OC5CC(O)C(O)C(C)O5)C(O)C(C)O4)c(C)c(O)c3c(O)c2C(=O)C1OC1CC(OC2CC(OC3CC(C)(O)C(O)C(C)O3)C(O)C(C)O2)C(O)C(C)O1 (stereo not drawn) [YL-C51] | 4.19 | 2790 | > 1000 | 456 | 0.25 |  |  |  |  |  |  |  |  |  |  |  | > 1000 |
| COC(C(=NOCCNC(=O)c1[nH]c2ccc(Cl)cc2c1-c1ccnn1C)C(O)C(C)O)C1Cc2cc3cc(OC4CC(OC5CC(O)C(O)C(C)O5)C(O)C(C)O4)c(C)c(O)c3c(O)c2C(=O)C1OC1CC(OC2CC(OC3CC(C)(O)C(O)C(C)O3)C(O)C(C)O2)C(O)C(C)O1 (stereo not drawn) [YL-C104] | 1.77 | 23 | 34 | 5.63 | 0.517 | 133 |  |  |  |  |  |  |  |  |  |  |  |
